Source: US11319315B2, “Cyclohexyl acid triazole azoles as LPA antagonists” (BRISTOL-MYERS SQUIBB COMPANY, priority 2017, dated 2022)
Like-named read-outs stand apart in the source and are kept apart here.

Target: T1, human LPA1 (Homo sapiens, UniProt Q92633)
T1 construct: expressed in transfected cells; host or cells: Chinese hamster ovary (CHO) cells
Experiment: LPA1 functional antagonist assay (LPA-induced calcium flux in CHO cells overexpressing human LPA1)
Assay type: cell-based
Details: read-out: hLPA1 IC50
Summary of the method: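 Calcium flux was triggered by 10 nM LPA after 20 min room-temperature compound pre-incubation (final 0.08 nM to 5 μM, 0.5% DMSO) in human LPA1-overexpressing CHO cells carrying calcium dye. Buffer: HBSS with Ca/Mg, 20 mM HEPES, 0.1% fatty-acid-free BSA; IC50s from 4-parameter logistic fits.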

[1] = inhibition of calcium flux induced by 10 nM LPA, CHO cells overexpressing human LPA1

T1 sequence (Q92633 whole entry): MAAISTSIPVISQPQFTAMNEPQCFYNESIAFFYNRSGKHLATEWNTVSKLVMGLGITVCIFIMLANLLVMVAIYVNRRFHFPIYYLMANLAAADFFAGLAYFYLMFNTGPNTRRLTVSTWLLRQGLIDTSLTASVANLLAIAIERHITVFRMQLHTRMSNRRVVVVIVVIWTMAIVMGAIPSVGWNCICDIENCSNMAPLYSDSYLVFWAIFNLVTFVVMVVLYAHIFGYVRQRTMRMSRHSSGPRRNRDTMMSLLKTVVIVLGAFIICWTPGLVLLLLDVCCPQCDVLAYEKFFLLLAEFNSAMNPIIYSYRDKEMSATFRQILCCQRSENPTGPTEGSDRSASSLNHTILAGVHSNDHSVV

| Compound | IC50 [1] [nM] | IC50 [nM] |
| --- | --- | --- |
| Cc1nc(-c2nnn(C)c2Cn2nnc(OC3CCC3)n2)ccc1O[C@H]1CCC[C@@H](C(=O)O)C1 [Example 335, (1R,3S)-3-[(6-{5-[(5-cyclobutoxy-2H-1,2,3,4-tetrazol-2-yl)methyl]-1-methyl-1H-1,2,3-triazol-4-yl}-2-methylpyridin-3-yl)oxy]cyclo-hexane-1-carboxylic acid] | 405 |  |
| Cc1nc(-c2nnn(C)c2CNc2nc(C(C)(C)C)no2)ccc1O[C@H]1CCC[C@H](C(=O)O)C1 [Example 60] | 478 |  |
| Cc1nc(-c2nnn(C)c2CNc2cnn(CC3CC3)n2)ccc1O[C@H]1CCC[C@H](C(=O)O)C1 [Example 31] | 54 |  |
| CCCc1nnnn1Cc1c(-c2ccc(O[C@H]3CCC[C@H](C(=O)O)C3)cn2)nnn1C [Example 253, (1S,3S)-3-((6-(1-methyl-5-((5-propyl-1H-tetrazol-1-yl)methyl)-1H-1,2,3-triazol-4-yl)pyridin-3-yl)oxy)cyclohexane-1-carboxylic acid] | 264 |  |
| Cc1nc(-c2nnn(C)c2Cn2nnc(OCC3CC(F)(F)C3)n2)ccc1O[C@H]1CCC[C@H](C(=O)O)C1 [Example 338] | 43 |  |
| Cc1nc(-c2nnn(C)c2Cc2nc(-c3ccccc3)no2)ccc1O[C@H]1CCC[C@H](C(=O)O)C1 [Example 245, (1S,3S)-3-((2-methyl-6-(1-methyl-5-((3-phenyl-1,2,4-oxadiazol-5-yl)methyl)-1H-1,2,3-triazol-4-yl)pyridin-3-yl)oxy)cyclohexane-1-carboxylic acid] | 79 |  |
| Cc1nc(-c2nnn(C)c2CNc2noc(CCCF)n2)ccc1O[C@H]1CCC[C@H](C(=O)O)C1 [Example 184] | 74 |  |
| Cc1nc(-c2nnn(C)c2Cn2nnnc2CC2CCC2)ccc1O[C@H]1CCC[C@H](C(=O)O)C1 [Example 356, (1S,3S)-3-{[6-(5-{[5-(cyclobutyl-methyl)-1H-1,2,3,4-tetrazol-1-yl]methyl}-1-methyl-1H-1,2,3-triazol-4-yl)-2-methylpyridin-3-yl]oxy}cyclohexane-1-carboxylic acid] | 146 |  |
| Cc1nc(-c2nnn(C)c2CNc2noc(C3CCC(F)(F)C3)n2)ccc1O[C@H]1CCC[C@H](C(=O)O)C1 (some centres unmarked) [Example 186] | 79 |  |
| Cc1nc(-c2nnn(C)c2CNc2noc(C(C)C3CC3)n2)ccc1O[C@H]1CCC[C@H](C(=O)O)C1 (some centres unmarked) [Example 185] | 24 |  |
| Cc1nc(-c2nnn(C)c2Cn2nnnc2N2CCCC2)ccc1O[C@H]1CCC[C@H](C(=O)O)C1 [Example 311, (1S,3S)-3-{[2-methyl-6-(1-methyl-5-{[5-(pyrrolidin-1-yl)-1H-1,2,3,4-tetrazol-1-yl]methyl}-1H-1,2,3-triazol-4-yl)pyridin-3-yl]oxy}cyclohexane-1-carboxylic acid] | 605 |  |
| Cc1nc(-c2nnn(C)c2Cc2noc(CC3CC3)n2)ccc1O[C@H]1CCC[C@H](C(=O)O)C1 [Example 228, (1S,3S)-3-((6-(5-((5-(cyclopropylmethyl)-1,2,4-oxadiazol-3-yl)methyl)-1-methyl-1H-1,2,3-triazol-4-yl)-2-methylpyridin-3-yl)oxy)cyclohexane-1-carboxylic acid] | 19 |  |
| Cc1nc(-c2nnn(C)c2CNc2noc(CCCCF)n2)ccc1O[C@H]1CCC[C@H](C(=O)O)C1 [Example 183] | 32 |  |
| Cc1nc(-c2nnn(C)c2CNc2noc(CC3CC3(F)F)n2)ccc1O[C@H]1CCC[C@H](C(=O)O)C1 (some centres unmarked) [Example 195] | 25 |  |
| Cc1nc(-c2nnn(C)c2CNc2noc(COC3CC3)n2)ccc1O[C@H]1CCC[C@H](C(=O)O)C1 [Example 212, (1 S,3 S)-3-((6-(5-(((5-(cyclopropoxymethyl)-1,2,4-oxadiazol-3-yl)amino)methyl)-1-methyl-1H-1,2,3-triazol-4-yl)-2-methylpyridin-3-yl)oxy)cyclohexane-1-carboxylic acid] | 34 |  |
| CCC(C)c1nc(NCc2c(-c3ccc(O[C@H]4CCC[C@H](C(=O)O)C4)c(C)n3)nnn2C)no1 (some centres unmarked) [Example 178] | 27.4 |  |
| Cc1nc(-c2nnn(C)c2CNc2cnn(CC(C)C)n2)ccc1O[C@H]1CCC[C@H](C(=O)O)C1 [Example 22, (1 S,3 S)-3-((6-(5-(((2-isobutyl-2H-1,2,3-triazol-4-yl)amino)methyl)-1-methyl-1H-1,2,3-triazol-4-yl)-2-methylpyridin-3-yl)oxy)cyclohexane-1-carboxylic acid] | 42 |  |
| Cc1nc(-c2nnn(C)c2Cn2nnnc2S(C)(=O)=O)ccc1O[C@H]1CCC[C@H](C(=O)O)C1 [Example 350, (1S,3S)-3-[(6-{5-[(5-methanesul-fonyl-1H-1,2,3,4-tetrazol-1-yl)methyl]-1-methyl-1H-1,2,3-triazol-4-yl}-2-methylpyridin-3-yl)oxy]cyclohexane-1-carboxylic acid] | 1240 |  |
| Cc1nc(-c2nnn(C)c2Cn2nnc(OCC(C)C)n2)ccc1O[C@H]1CCC[C@H](C(=O)O)C1 [Example 344, (1S,3S)-3-{[2-methyl-6-(1-methyl-5-{[5-(2-methylpropoxy)-2H-1,2,3,4-tetrazol-2-yl]methyl}-1H-1,2,3-triazol-4-yl)pyridin-3-yl]oxy}cyclohexane-1-carboxylic acid] | 25 |  |
| Cc1nc(-c2nnn(C)c2CNc2cnn(C3CCC3)n2)ccc1O[C@H]1CCC[C@H](C(=O)O)C1 [Example 30] | 91 |  |
| CSc1nnnn1Cc1c(-c2ccc(O[C@H]3CCC[C@H](C(=O)O)C3)c(C)n2)nnn1C [Example 352, (1S,3S)-3-{[2-methyl-6-(1-methyl-5-{[5-(methylsulfanyl)-1H-1,2,3,4-tetrazol-1-yl]methyl}-1H-1,2,3-triazol-4-yl)pyridin-3-yl]oxy}cyclohexane-1-carboxylic acid] | 580 |  |
| Cc1nc(-c2nnn(C)c2CNc2noc(COC(C)C)n2)ccc1O[C@H]1CCC[C@H](C(=O)O)C1 [Example 145] | 31 |  |
| Cc1nc(-c2nnn(C)c2CNc2ncc(C(C)C)s2)ccc1O[C@H]1CCC[C@H](C(=O)O)C1 [Example 15] | 55 |  |

Continued, values first:

| IC50 [1] [nM] | IC50 [nM] | Compound |
| --- | --- | --- |
| 98 |  | Cc1nc(-c2nnn(C)c2CNc2nc(CC(C)C)ns2)ccc1O[C@H]1CCC[C@H](C(=O)O)C1 [Example 102] |
| 102 |  | Cc1nc(-c2nnn(C)c2Cn2nnc(CC3CCC3)n2)ccc1O[C@H]1CCC[C@H](C(=O)O)C1 [Example 295, (1S,3S)-3-{[6-(5-{[5-(cyclobutyl-methyl)-2H-1,2,3,4-tetrazol-2-yl]methyl}-1-methyl-1H-1,2,3-triazol-4-yl)-2-methylpyridin-3-yl]oxy}cyclohexane-1-carboxylic acid] |
| 34.1 |  | Cn1nnc(-c2ccc(O[C@H]3CCC[C@H](C(=O)O)C3)cn2)c1CNc1noc(CC2CCC2)n1 [Example 288, (1S,3S)-3-((6-(5-(((5-(cyclobutylmethyl)-1,2,4-oxadiazol-3-yl)amino)methyl)-1-methyl-1H-1,2,3-triazol-4-yl)pyridin-3-yl)oxy)cyclohexane-1-carboxylic acid] |
| 800 |  | CSc1nnn(Cc2c(-c3ccc(O[C@H]4CCC[C@H](C(=O)O)C4)c(C)n3)nnn2C)n1 [Example 353, (1S,3S)-3-{[2-methyl-6-(1-methyl-5-{[5-(methylsulfanyl)-2H-1,2,3,4-tetrazol-2-yl]methyl}-1H-1,2,3-triazol-4-yl)pyridin-3-yl]oxy}cyclohexane-1-carboxylic acid] |
| 46 |  | Cc1nc(-c2nnn(C)c2CNc2ncn(-c3cc(F)cc(F)c3)n2)ccc1O[C@H]1CCC[C@H](C(=O)O)C1 [Example 40] |
| 24.1 |  | Cc1nc(-c2nnn(C)c2CNc2noc(C3CC3(C)C)n2)ccc1O[C@H]1CCC[C@H](C(=O)O)C1 (some centres unmarked) [Example 181] |
| 483 |  | Cc1nc(-c2nnn(C)c2CNc2nc(-c3ccccn3)ns2)ccc1O[C@H]1CCC[C@H](C(=O)O)C1 [Example 101] |
| 5 |  | Cc1nc(-c2nnn(C)c2CNc2noc(CCC3CCC3)n2)ccc1O[C@H]1CCC[C@H](C(=O)O)C1 [Example 166] |
| 239 |  | Cc1nc(-c2nnn(C)c2Cn2nnnc2-c2ccccc2)ccc1O[C@H]1CCC[C@H](C(=O)O)C1 [Example 108] |
| 241 |  | Cc1nc(-c2nnn(C)c2Cn2cc(C(=O)c3ccccc3)nn2)ccc1O[C@H]1CCC[C@H](C(=O)O)C1 [Example 85] |
| 21 |  | Cc1nc(-c2nnn(C)c2CNc2nc(CCC(C)C)no2)ccc1O[C@H]1CCC[C@H](C(=O)O)C1 [Example 158] |
|  | 167 | C=CCn1nnc(NCc2c(-c3ccc(O[C@H]4CCC[C@H](C(=O)O)C4)c(C)n3)nnn2C)n1 [Example 392, (1S,3S)-3-((6-(5-(((2-allyl-2H-tetrazol-5-yl)amino)methyl)-1-methyl-1H-1,2,3-triazol-4-yl)-2-methylpyridin-3-yl)oxy)cyclo-hexane-1-carboxylic acid] |
|  | 1240 | Cc1nc(-c2nnn(C)c2CN(CC2CC2)c2nnn(CC3CC3)n2)ccc1O[C@H]1CCC[C@H](C(=O)O)C1 [Example 377, (1S,3S)-3-((6-(5-(((cyclopropyl-methyl)(2-(cyclopropylmethyl)-2H-tetrazol-5-yl)amino)methyl)-1-methyl-1H-1,2,3-triazol-4-yl)-2-methylpyridin-3-yl)oxy)cyclohexane-1-carboxylic acid] |
|  | 22 | CCc1nc(-c2nnn(C)c2CNc2nc(CC(C)C)ns2)ccc1O[C@H]1CCC[C@H](C(=O)O)C1 [Example 395, (1S,3S)-3-((2-ethyl-6-(5-(((3-isobutyl-1,2,4-thiadiazol-5-yl)amino)methyl)-1-methyl-1H-1,2,3-triazol-4-yl)pyridin-3-yl)oxy)cyclohexane-1-carboxylic acid] |
|  | 92 | Cc1nc(-c2nnn(C)c2Cc2nnn(CC3CC3)n2)ccc1O[C@H]1CCC[C@H](C(=O)O)C1 [Example 360, (1S,3S)-3-((6-(5-((2-(cyclopropyl-methyl)-2H-tetrazol-5-yl)methyl)-1-methyl-1H-1,2,3-triazol-4-yl)-2-methylpyridin-3-yl)oxy)cyclo-hexane-1-carboxylic acid] |
